Experiment: xn = mol fraction of the nth substance listed
Settings: Liquid; for electrical conductivity: Radiometer CDM 210 Meterlab conductimeter with a CDC 745-9 cell

CCCCCC[N+]1(C)CCCC1.O=S(=O)([N-]S(=O)(=O)C(F)(F)F)C(F)(F)F + CN(C)C=O
Settings | electrical conductivity, 101 kPa [S/m] | viscosity, 101.3 kPa [mPa·s]
293.2 K, x2 = 0.1 | 0.155 | –
293.2 K, x2 = 0.5 | 0.382 | –
293.2 K, x2 = 0.9 | 1.68 | –
295.2 K, x2 = 0 | – | 119.8
295.2 K, x2 = 0.1 | 0.17 | –
295.2 K, x2 = 0.104 | – | 83
295.2 K, x2 = 0.205 | – | 56.7
295.2 K, x2 = 0.301 | – | 42.9
295.2 K, x2 = 0.402 | – | 28.1
295.2 K, x2 = 0.5 | 0.418 | 19.6
295.2 K, x2 = 0.599 | – | 12
295.2 K, x2 = 0.7 | – | 5.5
295.2 K, x2 = 0.9 | 1.74 | –
298.2 K, x2 = 0.1 | 0.191 | –
298.2 K, x2 = 0.5 | 0.47 | –
298.2 K, x2 = 0.9 | 1.82 | –
300.2 K, x2 = 0 | – | 96.8
300.2 K, x2 = 0.104 | – | 67.5
300.2 K, x2 = 0.205 | – | 47.2
300.2 K, x2 = 0.301 | – | 36.4
300.2 K, x2 = 0.402 | – | 24
300.2 K, x2 = 0.5 | – | 17
300.2 K, x2 = 0.599 | – | 10.5
300.2 K, x2 = 0.7 | – | 5.1
301.2 K, x2 = 0.1 | 0.211 | –
301.2 K, x2 = 0.5 | 0.522 | –
301.2 K, x2 = 0.9 | 1.9 | –
303.2 K, x2 = 0.1 | 0.224 | –
303.2 K, x2 = 0.5 | 0.557 | –
303.2 K, x2 = 0.9 | 1.96 | –
305.2 K, x2 = 0 | – | 79.6
305.2 K, x2 = 0.1 | 0.239 | –
305.2 K, x2 = 0.104 | – | 55.8
305.2 K, x2 = 0.205 | – | 39.8
305.2 K, x2 = 0.301 | – | 30.8
305.2 K, x2 = 0.402 | – | 20.9
305.2 K, x2 = 0.5 | 0.592 | 14.7
305.2 K, x2 = 0.599 | – | 9.3
305.2 K, x2 = 0.7 | – | 4.7
305.2 K, x2 = 0.9 | 2.02 | –
308.2 K, x2 = 0.1 | 0.26 | –
308.2 K, x2 = 0.5 | 0.645 | –
308.2 K, x2 = 0.9 | 2.1 | –
310.2 K, x2 = 0 | – | 64.8
310.2 K, x2 = 0.104 | – | 45.9
310.2 K, x2 = 0.205 | – | 33.6
310.2 K, x2 = 0.301 | – | 26.3
310.2 K, x2 = 0.402 | – | 17.9
310.2 K, x2 = 0.5 | – | 13
310.2 K, x2 = 0.599 | – | 8.4
310.2 K, x2 = 0.7 | – | 4.3
311.2 K, x2 = 0.1 | 0.28 | –
311.2 K, x2 = 0.5 | 0.697 | –
311.2 K, x2 = 0.9 | 2.19 | –
313.2 K, x2 = 0.1 | 0.295 | –
313.2 K, x2 = 0.5 | 0.732 | –
313.2 K, x2 = 0.9 | 2.24 | –
315.2 K, x2 = 0 | – | 54.2
315.2 K, x2 = 0.1 | 0.31 | –
315.2 K, x2 = 0.104 | – | 38
315.2 K, x2 = 0.205 | – | 28.8
315.2 K, x2 = 0.301 | – | 22.6
315.2 K, x2 = 0.402 | – | 15.7
315.2 K, x2 = 0.5 | 0.767 | 11.4
315.2 K, x2 = 0.599 | – | 7.5
315.2 K, x2 = 0.7 | – | 3.9
315.2 K, x2 = 0.9 | 2.31 | –
318.2 K, x2 = 0.1 | 0.33 | –
318.2 K, x2 = 0.5 | 0.819 | –
318.2 K, x2 = 0.9 | 2.39 | –
320.2 K, x2 = 0 | – | 45.9
320.2 K, x2 = 0.104 | – | 32.4
320.2 K, x2 = 0.205 | – | 24.8
320.2 K, x2 = 0.301 | – | 19.5
320.2 K, x2 = 0.402 | – | 13.9
320.2 K, x2 = 0.5 | – | 10
320.2 K, x2 = 0.599 | – | 6.8
320.2 K, x2 = 0.7 | – | 3.6
321.2 K, x2 = 0.1 | 0.351 | –
321.2 K, x2 = 0.5 | 0.871 | –
321.2 K, x2 = 0.9 | 2.48 | –
323.2 K, x2 = 0.1 | 0.365 | –
323.2 K, x2 = 0.5 | 0.91 | –
323.2 K, x2 = 0.9 | 2.54 | –
325.2 K, x2 = 0 | – | 38.9
325.2 K, x2 = 0.104 | – | 27.6
325.2 K, x2 = 0.205 | – | 21.8
325.2 K, x2 = 0.301 | – | 16.9
325.2 K, x2 = 0.402 | – | 12
325.2 K, x2 = 0.5 | – | 9.1
325.2 K, x2 = 0.599 | – | 6.2
325.2 K, x2 = 0.7 | – | 3.4

CCCC[N+]1(C)CCCC1.O=S(=O)([N-]S(=O)(=O)C(F)(F)F)C(F)(F)F + CN(C)C=O
295.2 K
Settings | electrical conductivity, 101 kPa [S/m] | viscosity, 101.3 kPa [mPa·s]
x2 = 0 | 0.28 | 80
x2 = 0.13 | – | 40.3
x2 = 0.144 | 0.387 | –
x2 = 0.24 | – | 29.6
x2 = 0.252 | 0.495 | –
x2 = 0.33 | – | 21.7
x2 = 0.336 | 0.612 | –
x2 = 0.403 | 0.74 | –
x2 = 0.45 | – | 14.4
x2 = 0.457 | 0.78 | –
x2 = 0.519 | 0.981 | –
x2 = 0.54 | – | 9.9
x2 = 0.574 | 1.1 | –
x2 = 0.637 | 1.32 | –
x2 = 0.64 | – | 6.6
x2 = 0.716 | 1.6 | –
x2 = 0.74 | – | 3.7
x2 = 0.773 | 1.85 | –
x2 = 0.835 | 2.1 | –
x2 = 0.871 | 2.17 | –
x2 = 0.894 | 2.17 | –
x2 = 0.91 | 2.12 | –
x2 = 0.931 | 1.98 | –
x2 = 0.953 | 1.7 | –
x2 = 0.971 | 1.31 | –
x2 = 0.981 | 1.01 | –

CCCC[N+]1(C)CCCC1.O=S(=O)([N-]S(=O)(=O)C(F)(F)F)C(F)(F)F + Cc1cccnc1
Settings | electrical conductivity [S/m]
295.2 K, 101 kPa, x2 = 0 | 0.28

CCCCn1cc[n+](C)c1.F[B-](F)(F)F [1-butyl-3-methylimidazolium tetrafluoroborate] + CN(C)C=O
295.2 K, 101 kPa
Settings | electrical conductivity [S/m] | viscosity [mPa·s]
x2 = 0 | 0.375 | 122.9
x2 = 0.088 | 0.464 | –
x2 = 0.14 | – | 65.6
x2 = 0.161 | 0.551 | –
x2 = 0.224 | 0.629 | –
x2 = 0.23 | – | 45.4
x2 = 0.324 | 0.79 | –
x2 = 0.33 | – | 26.3
x2 = 0.366 | 0.871 | –
x2 = 0.434 | 1.03 | –
x2 = 0.44 | – | 16.1
x2 = 0.49 | 1.17 | –
x2 = 0.53 | – | 11.2
x2 = 0.535 | 1.3 | –
x2 = 0.606 | 1.55 | –
x2 = 0.61 | – | 9.8
x2 = 0.658 | 1.72 | –
x2 = 0.728 | 2.01 | –
x2 = 0.73 | – | 4.7
x2 = 0.793 | 2.31 | –
x2 = 0.828 | 2.4 | –
x2 = 0.852 | 2.44 | –
x2 = 0.906 | 2.44 | –
x2 = 0.957 | 1.83 | –
x2 = 0.973 | 1.39 | –
x2 = 0.981 | 1.13 | –

CCCCn1cc[n+](C)c1.F[B-](F)(F)F [1-butyl-3-methylimidazolium tetrafluoroborate] + Cc1cccnc1
Settings | electrical conductivity [S/m]
295.2 K, 101 kPa, x2 = 0 | 0.378

Cc1cccnc1 [3-methylpyridine] + CCCC[N+]1(C)CCCC1.O=S(=O)([N-]S(=O)(=O)C(F)(F)F)C(F)(F)F
295.2 K, 101 kPa
Settings | electrical conductivity [S/m]
x1 = 0.029 | 0.353
x1 = 0.057 | 0.335
x1 = 0.095 | 0.367
x1 = 0.153 | 0.416
x1 = 0.194 | 0.445
x1 = 0.249 | 0.467
x1 = 0.338 | 0.522
x1 = 0.387 | 0.578
x1 = 0.439 | 0.606
x1 = 0.49 | 0.635
x1 = 0.54 | 0.686
x1 = 0.591 | 0.726
x1 = 0.64 | 0.761
x1 = 0.691 | 0.793
x1 = 0.743 | 0.814
x1 = 0.794 | 0.808
x1 = 0.845 | 0.771
x1 = 0.896 | 0.665

Cc1cccnc1 [3-methylpyridine] + CCCCn1cc[n+](C)c1.F[B-](F)(F)F
295.2 K, 101 kPa
Settings | electrical conductivity [S/m]
x1 = 0.061 | 0.44
x1 = 0.114 | 0.476
x1 = 0.162 | 0.52
x1 = 0.205 | 0.555
x1 = 0.244 | 0.588
x1 = 0.279 | 0.616
x1 = 0.34 | 0.674
x1 = 0.392 | 0.72
x1 = 0.474 | 0.802
x1 = 0.568 | 0.845
x1 = 0.659 | 0.915
x1 = 0.721 | 0.928
x1 = 0.763 | 0.936
x1 = 0.798 | 0.94
x1 = 0.838 | 0.838
x1 = 0.866 | 0.747
x1 = 0.906 | 0.59
x1 = 0.928 | 0.474

Source: the NIST ThermoML archive (doi:10.1021/je0504515)
